Conditions: Liquid, Vibrating tube method

CCCCCCC [heptane]
Conditions | mass density [kg/m3]
293.15 K, 5011 kPa | 688.859
293.15 K, 9042.1 kPa | 692.394
293.15 K, 10036 kPa | 693.252
293.15 K, 11946 kPa | 694.459
293.15 K, 14941 kPa | 697.266
293.15 K, 21987 kPa | 701.769
293.15 K, 27986 kPa | 706.659
293.15 K, 33150 kPa | 710.401
293.15 K, 33151 kPa | 710.425
293.15 K, 34099 kPa | 710.557
293.15 K, 35000 kPa | 711.53
293.15 K, 40081 kPa | 714.898
293.15 K, 42099 kPa | 716.347
293.15 K, 45068 kPa | 718.234
293.15 K, 54966 kPa | 724.479
293.15 K, 58072 kPa | 726.215
293.15 K, 66045 kPa | 730.5
293.16 K, 305.2 kPa | 684.504
293.16 K, 476.4 kPa | 684.708
293.16 K, 1045.2 kPa | 685.167
293.16 K, 7096.8 kPa | 690.796
293.16 K, 17889 kPa | 698.789
293.16 K, 19992 kPa | 701.345
293.16 K, 24983 kPa | 704.2
293.16 K, 29976 kPa | 708.599
293.16 K, 32232 kPa | 710.098
293.16 K, 38026 kPa | 712.948
293.16 K, 48022 kPa | 720.258
293.16 K, 50084 kPa | 721.322
293.16 K, 52032 kPa | 722.789
293.16 K, 60018 kPa | 727.31
293.16 K, 61962 kPa | 728.261
293.16 K, 64991 kPa | 729.973
298.15 K, 102.3 kPa | 679.807
298.15 K, 305.4 kPa | 680.336
298.15 K, 854.5 kPa | 680.896
298.15 K, 1980.9 kPa | 681.933
298.15 K, 3167.8 kPa | 682.97
298.15 K, 5067.6 kPa | 684.841
298.15 K, 7065.3 kPa | 686.383
298.15 K, 10107 kPa | 689.119
298.15 K, 20128 kPa | 696.696
298.15 K, 22004 kPa | 699.062
298.15 K, 25080 kPa | 701.29
298.15 K, 33113 kPa | 707.026
298.15 K, 33924 kPa | 706.971
298.15 K, 38097 kPa | 709.948
298.15 K, 40161 kPa | 711.975
298.15 K, 42028 kPa | 713.324
298.15 K, 45021 kPa | 715.087
298.15 K, 48107 kPa | 717.001
298.15 K, 50068 kPa | 718.317
298.15 K, 55016 kPa | 721.123
298.15 K, 57931 kPa | 723.027
298.15 K, 59914 kPa | 724.031
298.15 K, 62036 kPa | 725.393
298.15 K, 65018 kPa | 726.954
298.16 K, 493.7 kPa | 680.581
298.16 K, 1012.6 kPa | 680.891
298.16 K, 9120.9 kPa | 688.48
298.16 K, 11970 kPa | 689.977
298.16 K, 15220 kPa | 693.294
298.16 K, 17984 kPa | 694.869
298.16 K, 28040 kPa | 703.578
298.16 K, 30089 kPa | 704.725
298.16 K, 32034 kPa | 706.093
298.16 K, 33093 kPa | 706.936
298.16 K, 35217 kPa | 707.884
298.16 K, 52020 kPa | 719.461
298.16 K, 66118 kPa | 727.501
303.15 K, 100.7 kPa | 675.559
303.15 K, 304.1 kPa | 675.598
303.15 K, 498.9 kPa | 675.77
303.15 K, 900.6 kPa | 675.904
303.15 K, 979.1 kPa | 676.053
303.15 K, 1977.6 kPa | 677.27
303.15 K, 4930.4 kPa | 680.06
303.15 K, 11975 kPa | 686.61
303.15 K, 15044 kPa | 689.15

— the NIST ThermoML archive (doi:10.1021/je5010214)
